Measured values from ChEMBL document CHEMBL4725290, “Synthesis of 2-guanidinyl pyridines and their trypsin inhibition and docking” (Bioorg Med Chem, 2020).
pKi: −log10 of the molar value.

Key:
[1] = Competitive inhibition of bovine pancreas trypsin assessed as release of para-nitroaniline using L-BAPA as substrate in presence of 4-nitrophenyl 4-guanidinobenzoate hydrochloride as inhibitor at pH 7.2 at 25 degC; set-up: species or system Bos taurus
Bos taurus = species: Bos taurus; assay: Competitive inhibition of bovine pancreas trypsin assessed as release of para-nitroaniline using L-BAPA as substrate at pH 7.2 in absence of inhibitor at 25 degC
[2] = Stability of the compound assessed as bovine trypsin-mediated hydrolysis for 6 days by NMR spectroscopy; assay type: ADME, Bos taurus; settings: cattle, isolated protein, 144 h; time 6 day
[3] = Competitive inhibition of bovine trypsin using Z-Arg-SBzl as substrate at pH 7.5 at 25 degC; set-up: species or system Bos taurus

SMILES | pKi [1] | V0 (Bos taurus) | also measured
N=C(N)Nc1cccnc1 | 3.02 |  | 
CN(C)/C=N/c1ccc(Br)cn1 | < 1.76 |  | 
CON(C)C(=O)c1ccc(NC(=N)N)nc1 | 2.59 |  | 
COC(=O)c1ccc(NC(=N)N)nc1.O=C(O)C(F)(F)F | 2.97 |  | Stabilty [2]: Stable
N=C(N)c1ccccc1 [BENZAMIDINE] |  |  | pKi [3]: 4.46
N=C(N)Nc1ccc(-c2ccccc2)cn1 | 3.02 |  | 
CC(=O)c1ccc(NC(=N)N)nc1 | 2.30 |  | 
N=C(N)Nc1ccncn1 | 3.29 |  | 

The remaining compounds from weak to strong by pKi [1], led by results:

pKi [1] | SMILES | V0 (Bos taurus) | also measured
3.54 | N=C(N)Nc1ccc(C=O)cn1 |  | 
3.66 | N=C(N)Nc1ccc(C(F)(F)F)cn1 | 10.3 10^-8M/s | 
3.84 | N=C(N)Nc1ccc(F)cn1 | 3.79 10^-8M/s | 
3.90 | N=C(N)Nc1ccc(Cl)cc1 |  | 
3.92 | Cc1ccnc(NC(=N)N)c1 |  | 
3.98 | Cc1ccc(NC(=N)N)nc1 |  | 
4.04 | Cc1cccc(NC(=N)N)n1 |  | 
4.08 | N=C(N)Nc1ccccn1 | 8.09 10^-8M/s | 
4.46 | N=C(N)Nc1ccc(Cl)cn1 | 8.26 10^-8M/s | 
4.69 | N=C(N)Nc1ccc(Br)cn1 | 3.85 10^-8M/s | 
4.82 | N=C(N)Nc1ccc(I)cn1 | 4.4 10^-8M/s | 
4.85 | Cc1cccnc1NC(=N)N |  | 
